In patent US10364263B2, “Cyclic phosphates and cyclic phosphoramidates for the treatment of neurologic disorders” (Retrophin, Inc., priority 2015, dated 2019):

Columns and labels:
[1] = Stability in human plasma; type: in vitro ADME; conditions: 37° C.
Method: (§1) Compounds and positive control samples were dissolved in 100% DMSO at 3 mM. To investigate the stability of the test compounds in plasma, samples were made by diluting test compounds into plasma from the stock solutions to obtain a test compound concentration of 3 μM (0.1% DMSO). Before addition of a test compound, 990 μl of plasma were preincubated at 37° C. for 5 min in eppendorf. After addition of a test compound, 70 μl for each time point were transferred to a 96-deepwell plate, previously warmed at 37° C. in a DUBNOFF water bath. Each compound was tested at five time points, in duplicate (10, 20, 30, 40 and 60 min). At each time point, an aliquot of 50 μl was taken and transferred to a new 96-deepwell plate, and the reaction was stopped with 200 μl of 100% acetonitrile containing 0.1% formic acid and the appropriate internal standard. Then samples were centrifuged at 1100×g for 30 min at +4° C. and supernatants were transferred to a new 96-deepwell plate. Samples were evaporated under N2 and reconstituted in H2O/ACN 0.1% Formic Acid (98:2). Analysis was performed without a calibration curve (Acquity UPLC-Waters; SciexAPI4000). Time 0 was obtained by adding acetonitrile before addition of the test compound.

[2] = system: PANK2 silenced human neuroblastoma IMR32 cells (PANK2−/−); test: Coenzyme A assay in PANK2 silenced cells (LC-MS quantification of free CoA); type: cell-based; conditions: compound added twice (24 h + 24 h), relative to 0.1% DMSO controls
Summary of the method: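 Free intracellular CoA was measured by positive-mode LC-MS/MS of 20% TFA extracts, taking 2 μl per 10^6 cells as intracellular volume. Cells were IMR32 with stable lentiviral PANK2 knockdown, dosed twice 24 h apart (48 h total, 0.1% DMSO). Output is fold increase over vehicle.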

[3] = Stability in mouse plasma; type: in vitro ADME
Method: as §1

[4] = human, plasma, Diastereoisomer A (upfield shift in 31P NMR), read-out: t1/2, Human Plasma, Diastereoisomer A (converted)
[5] = human, plasma, Diastereoisomer B, read-out: t1/2, Human Plasma, Diastereoisomer B (converted)
[6] = Diastereoisomer A (upfield shift in 31P NMR), read-out: t1/2, Human Plasma, Diastereoisomer A (converted)
[7] = Diastereoisomer A (upfield shift in 31P NMR), 3 μM, 37° C., mouse plasma, read-out: t1/2, Mouse Plasma, Diastereoisomer A

Row | Compound | half-life at 3 µM [1, 4] [min] | half-life at 3 µM [1, 5] [min] | half-life at 3 µM ([3]; mouse, plasma) [min] | t1/2, Mouse Plasma, Diastereoisomer B ([3]; mouse, plasma, 3 µM) [min] | PANK2−/− CoA (Fold Increase): fold increase in Coenzyme A (CoA) levels relative to controls [2] [Fold Increase] | half-life at 3 µM [1, 6] [min] | t1/2, Human Plasma, Diastereoisomer B ([1]; Diastereoisomer B, 3 μM) [min] | half-life at 3 µM [3, 7] [min] | t1/2, Mouse Plasma, Diastereoisomer B ([3]; Diastereoisomer B, 3 μM, 37° C., mouse plasma) [min]
1 | COC(=O)CCNC(=O)[C@@H]1OP(=O)(NCCN2CCOCC2)OCC1(C)C (stereo partly drawn) [compound 126, methyl 3-((4R)-5,5-dimethyl-2-((2-morpholinoethyl)amino)-2-oxido-1,3,2-dioxaphosphinane-4-carboxamido)propanoate] |  |  |  |  | 1.33 | > 60 | >60 | < 9.6 | <9.6
2 | CC(C)(C)C(=O)OCO[P@@]1(=O)OCC(C)(C)[C@H](C(=O)NCCC(=O)OC2CCNC2)O1 (stereo partly drawn) [Compound No. 92, (((2S,4R)-5,5-dimethyl-2-oxido-4-((3-oxo-3-(pyrrolidin-3-yloxy)propyl)carbamoyl)-1,3,2-dioxaphosphinan-2-yl)oxy)methyl pivalate] | 27 |  | < 9.6 |  | 5.13 |  |  |  | 
3 | CC(C)(C)C(=O)OCO[P@@]1(=O)OCC(C)(C)[C@H](C(=O)NCCC(=O)OCC2CCC(=O)N2)O1 (stereo partly drawn) [Compound No. 2-113, (((2S,4R)-5,5-dimethyl-2-oxido-4-((3-oxo-3-((5-oxopyrrolidin-2-yl)methoxy)propyl)carbamoyl)-1,3,2-dioxaphosphinan-2-yl)oxy)methyl pivalate] | 33.6 |  | < 9.6 |  | 7.93 |  |  |  | 
4 | CC(C)(C)C(=O)OCOP1(=O)OCC(C)(C)[C@H](C(=O)NCCC(=O)OCc2ncccn2)O1 (stereo partly drawn) [Compound No. 95, (((4R)-5,5-dimethyl-2-oxido-4-((3-oxo-3-(pyrimidin-2-ylmethoxy)propyl)carbamoyl)-1,3,2-dioxaphosphinan-2-yl)oxy)methyl pivalate] | > 60 | < 9.6 | < 9.6 | <9.6 | 54.03 |  |  |  | 
5 | Cc1cc(COC(=O)CCNC(=O)[C@@H]2OP(=O)(OCOC(=O)C(C)(C)C)OCC2(C)C)no1 (single isomer, unassigned) [Compound No. 74] | 46.8 | < 9.6 | < 9.6 | <9.6 | 176 |  |  |  | 
6 | Cc1cc(COC(=O)CCNC(=O)[C@@H]2OP(=O)(N[C@@H](C)C(=O)OCCc3ccccc3)OCC2(C)C)no1 (stereo partly drawn) [compound 40, (5-methylisoxazol-3-yl)methyl 3-((4R)-5,5-dimethyl-2-oxido-2-(((S)-1-oxo-1-phenethoxypropan-2-yl)amino)-1,3,2-dioxaphosphinane-4-carboxamido)propanoate] | > 60 | > 60 | < 9.6 | <9.6 | 2.77 |  |  |  | 
7 | COC(=O)CCNC(=O)[C@@H]1OP(=O)(NCc2ccncc2)OCC1(C)C (stereo partly drawn) [compound 125, methyl 3-((4R)-5,5-dimethyl-2-oxido-2-((pyridin-4-ylmethyl)amino)-1,3,2-dioxaphosphinane-4-carboxamido)propanoate] |  |  |  |  | 1.99 | > 60 |  | < 9.6 | 

Second part, led by results:

Row | half-life at 3 µM [1, 4] [min] | half-life at 3 µM [1, 5] [min] | half-life at 3 µM ([3]; mouse, plasma) [min] | t1/2, Mouse Plasma, Diastereoisomer B ([3]; mouse, plasma, 3 µM) [min] | Compound | PANK2−/− CoA (Fold Increase): fold increase in Coenzyme A (CoA) levels relative to controls [2] [Fold Increase] | half-life at 3 µM [1, 6] [min] | t1/2, Human Plasma, Diastereoisomer B ([1]; Diastereoisomer B, 3 μM) [min] | half-life at 3 µM [3, 7] [min] | t1/2, Mouse Plasma, Diastereoisomer B ([3]; Diastereoisomer B, 3 μM, 37° C., mouse plasma) [min]
8 | > 60 | 39 | < 9.6 | <9.6 | COC(=O)CCNC(=O)[C@@H]1OP(=O)(N[C@H](C)C(=O)OCc2cccnc2)OCC1(C)C (stereo partly drawn) [compound 28, methyl 3-((4R)-5,5-dimethyl-2-oxido-2-(((R)-1-oxo-1-(pyridin-3-ylmethoxy)propan-2-yl)amino)-1,3,2-dioxaphosphinane-4-carboxamido)propanoate] | 0.87 |  |  |  | 
9 | > 60 | > 60 | < 9.6 | <9.6 | COC(=O)CCNC(=O)[C@@H]1OP(=O)(N[C@H](C)C(=O)OCCc2scnc2C)OCC1(C)C (stereo partly drawn) [compound 32, methyl 3-((4R)-5,5-dimethyl-2-(((R)-1-(2-(4-methylthiazol-5-yl)ethoxy)-1-oxopropan-2-yl)amino)-2-oxido-1,3,2-dioxaphosphinane-4-carboxamido)propanoate] | 1.49 |  |  |  | 
10 | > 60 | < 9.6 | < 9.6 | <9.6 | COC(=O)CCNC(=O)[C@@H]1OP(=O)(OCOC(=O)C2(C(N)=O)CC2)OCC1(C)C (stereo partly drawn) [Compound No. 83, (((4R)-4-((3-methoxy-3-oxopropyl)carbamoyl)-5,5-dimethyl-2-oxido-1,3,2-dioxaphosphinan-2-yl)oxy)methyl 1-carbamoylcyclopropane-1-carboxylate] | 12.02 |  |  |  | 
11 | > 60 |  | < 9.6 |  | COC(=O)CCNC(=O)[C@@H]1OP(=O)(N[C@@H](C)C(=O)OCCN2CCOCC2)OCC1(C)C (stereo partly drawn) [compound 27, methyl 3-((4R)-5,5-dimethyl-2-(((S)-1-(2-morpholinoethoxy)-1-oxopropan-2-yl)amino)-2-oxido-1,3,2-dioxaphosphinane-4-carboxamido)propanoate] | 1.49 |  |  |  | 
12 | < 9.6 | < 9.6 | < 9.6 | <9.6 | COC(=O)CCNC(=O)[C@@H]1OP(=O)(OCOC(=O)c2cnccn2)OCC1(C)C (stereo partly drawn) [compound 86, (((4R)-4-((3-methoxy-3-oxopropyl)carbamoyl)-5,5-dimethyl-2-oxido-1,3,2-dioxaphosphinan-2-yl)oxy)methyl pyrazine-2-carboxylate] | 2.45 |  |  |  | 
13 | > 60 | > 60 | < 9.6 | <9.6 | COC(=O)CCNC(=O)[C@@H]1OP(=O)(OCCc2cccnc2)OCC1(C)C (stereo partly drawn) [compound 61, methyl 3-((4R)-5,5-dimethyl-2-oxido-2-(2-(pyridin-3-yl)ethoxy)-1,3,2-dioxaphosphinane-4-carboxamido)propanoate] | 1.93 |  |  |  | 
14 | 16.8 |  | < 9.6 |  | CCOCCCOC(=O)CCNC(=O)[C@@H]1O[P@@](=O)(OCOC(=O)C(C)(C)C)OCC1(C)C (single isomer, unassigned) [Compound No. 96] | 29.43 |  |  |  | 
15 | > 60 | < 9.6 | < 9.6 | <9.6 | CC(C)(C)C(=O)OCO[P@@]1(=O)OCC(C)(C)[C@H](C(=O)NCCC(=O)OCc2cncs2)O1 (single isomer, unassigned) [Compound No. 79] | 133.6 |  |  |  | 
